According to patent US12522594B2, “2-heteroaryl-3-oxo-2,3-dihydropyridazine-4-carboxamides for the treatment of cancer” (Deutsches Krebsforschungszentrum, priority 2017, dated 2026):

Assays:
[1] = target: T1, AHR (Homo sapiens, UniProt P35869); assay: In vitro assay 1: antagonism in human cell line (transactivation assay, U87 cells prestimulated with kynurenic acid, DRE firefly luciferase reporter); format: cell-based; parameters: host or cells: U87 glioblastoma cells, stably transfected with DRE firefly luciferase and renilla reporter constructs; conditions: 150 uM kynurenic acid, 20 hours, read-out: Assay 1: AHR-luc Hum Antagonism IC50
T1 sequence (P35869 11-848): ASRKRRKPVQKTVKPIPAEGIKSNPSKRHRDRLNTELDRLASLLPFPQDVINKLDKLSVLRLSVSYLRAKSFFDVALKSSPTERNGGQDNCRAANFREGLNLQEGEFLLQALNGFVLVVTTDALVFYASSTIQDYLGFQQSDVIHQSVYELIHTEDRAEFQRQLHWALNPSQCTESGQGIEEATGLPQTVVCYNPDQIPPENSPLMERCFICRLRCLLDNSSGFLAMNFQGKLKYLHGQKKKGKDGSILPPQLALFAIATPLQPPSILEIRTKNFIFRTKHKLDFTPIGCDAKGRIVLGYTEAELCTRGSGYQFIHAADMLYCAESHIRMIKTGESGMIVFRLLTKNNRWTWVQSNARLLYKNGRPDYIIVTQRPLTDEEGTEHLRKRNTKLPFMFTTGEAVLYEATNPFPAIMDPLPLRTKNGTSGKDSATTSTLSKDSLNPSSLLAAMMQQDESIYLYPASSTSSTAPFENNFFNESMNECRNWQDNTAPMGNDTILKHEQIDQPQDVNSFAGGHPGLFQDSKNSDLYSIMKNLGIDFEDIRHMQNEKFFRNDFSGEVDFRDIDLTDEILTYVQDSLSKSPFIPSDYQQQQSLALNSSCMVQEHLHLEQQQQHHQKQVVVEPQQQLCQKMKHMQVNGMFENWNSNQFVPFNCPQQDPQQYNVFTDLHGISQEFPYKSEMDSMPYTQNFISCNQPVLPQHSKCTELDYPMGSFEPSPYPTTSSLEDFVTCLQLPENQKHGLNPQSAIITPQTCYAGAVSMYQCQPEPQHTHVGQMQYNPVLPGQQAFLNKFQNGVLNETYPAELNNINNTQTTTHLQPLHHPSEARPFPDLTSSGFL
Description: (§1) Transactivation Assay in Human Cell Line (In Vitro Assays 1 and 2)
(§2) Transactivation assays were carried out in U87 glioblastoma cells (ATCC) endogenously expressing AHR. In addition the cells were stably transfected with an AHR inducible firefly luciferase reporter gene construct that carried AHR-binding sites (DRE) in its promoter and a renilla reporter gene construct with constitutively active promoter. Kynurenic acid is an endogenous AHR activating ligand and was used to prestimulate test cells prior to testing the antagonistic properties of compounds.
In Vitro Assay 1: Antagonism in Human Cell Line
Normalization was done by positive and negative controls.

[2] = target: T1, AHR; assay: In vitro assay 2: agonism in human cell line (transactivation assay, U87 cells, DRE firefly luciferase reporter); format: cell-based; parameters: host or cells: U87 glioblastoma cells, stably transfected with DRE firefly luciferase and renilla reporter constructs; conditions: no kynurenic acid, 20 hours, read-out: Assay 2: AHR-luc Hum Agonism IC50
Description: as §1, §2
In Vitro Assay 2: Agonism in Human Cell Line
As positive activation control cells were incubated with 300 uM kynurenic acid. Normalization was done by positive and negative controls.

IC50 [1]	IC50 [2]	Structure (SMILES)
19.9 nM	> 20000 nM	O=C(N[C@H](CO)C1CC1)c1cc(-c2ccc(C(F)F)cc2)nn(-c2cccnc2)c1=O [Example 150, N-[(1S)-1-Cyclopropyl-2-hydroxyethyl]-6-[4-(difluoromethyl)phenyl]-3-oxo-2-(pyridin-3-yl)-2,3-dihydropyridazine-4-carboxamide]
21.1 nM	> 20000 nM	C[C@@H](CO)NC(=O)c1cc(-c2ccc(C(F)F)cc2)nn(-c2cccnc2)c1=O [Example 151, 6-[4-(Difluoromethyl)phenyl]-N-[(2S)-1-hydroxypropan-2-yl]-3-oxo-2-(pyridin-3-yl)-2,3-dihydropyridazine-4-carboxamide]
3.35 nM	> 20000 nM	C[C@@H](CO)NC(=O)c1cc(-c2ccc(N(C)C)cc2)nn(-c2cccnc2)c1=O [Example 191, 6-[4-(Dimethylamino)phenyl]-N-[(2S)-1-hydroxypropan-2-yl]-3-oxo-2-(pyridin-3-yl)-2,3-dihydropyridazine-4-carboxamide]
22.9 nM	> 20000 nM	N#C[C@@H](CO)NC(=O)c1cc(-c2ccc(Cl)cc2)nn(-c2cccnc2)c1=O [Example 254, 6-(4-Chlorophenyl)-N-[(1S)-1-cyano-2-hydroxyethyl]-3-oxo-2-(pyridin-3-yl)-2,3-dihydropyridazine-4-carboxamide]
159 nM	> 20000 nM	O=C(NC(CO)CO)c1cc(-c2ccc(Cl)cc2)nn(-c2cccnc2)c1=O [Example 70, 6-(4-Chlorophenyl)-N-(1,3-dihydroxypropan-2-yl)-3-oxo-2-(pyridin-3-yl)-2,3-dihydropyridazine-4-carboxamide]
820 nM	> 20000 nM	C[C@H](NC(=O)c1cc(-c2ccc(CF)cc2)nn(-c2cccnc2)c1=O)C(C)(C)O [Example 288, 6-[4-(Fluoromethyl)phenyl]-N-[(2S)-3-hydroxy-3-methylbutan-2-yl]-3-oxo-2-(pyridin-3-yl)-2,3-dihydropyridazine-4-carboxamide]
26.3 nM	> 20000 nM	COC[C@@H](CO)NC(=O)c1cc(-c2ccc(C(F)(F)F)cc2)nn(-c2cccnc2)c1=O [Example 257, N-[(2R)-1-Hydroxy-3-methoxypropan-2-yl]-3-oxo-2-(pyridin-3-yl)-6-[4-(trifluoromethyl)phenyl]-2,3-dihydropyridazine-4-carboxamide]
67.9 nM	> 20000 nM	C[C@@H](CO)NC(=O)c1cc(-c2ccc(Cl)cc2)nn(-c2cncnc2)c1=O [Example 120, 6-(4-Chlorophenyl)-N-[(2S)-1-hydroxypropan-2-yl]-3-oxo-2-(pyrimidin-5-yl)-2,3-dihydropyridazine-4-carboxamide]

More lines, now with the values behind:

Structure (SMILES)	IC50 [1]	IC50 [2]
O=C(N[C@H]1COC[C@@H]1O)c1cc(-c2ccc(Cl)cc2)nn(-c2cncc(F)c2)c1=O (single isomer, unassigned; enantiomer 1) [Example 155, 6-(4-Chlorophenyl)-2-(5-fluoropyridin-3-yl)-N-[(trans)-4-hydroxytetrahydrofuran-3-yl]-3-oxo-2,3-dihydropyridazine-4-carboxamide, Enantiomer 1]	90.5 nM	> 20000 nM
C[C@H](NC(=O)c1cc(-c2ccc(C(F)(F)F)cc2)nn(-c2cnn(C(F)F)c2)c1=O)C(C)(C)O [Example 228, 2-[1-(Difluoromethyl)-1H-pyrazol-4-yl]-N-[(2S)-3-hydroxy-3-methylbutan-2-yl]-3-oxo-6-[4-(trifluoromethyl)phenyl]-2,3-dihydropyridazine-4-carboxamide]	13.3 nM	> 20000 nM
C[C@@H](CO)NC(=O)c1cc(-c2ccc(CF)cc2)nn(-c2cnn(C)c2)c1=O [Example 287, 6-[4-(Fluoromethyl)phenyl]-N-[(2S)-1-hydroxypropan-2-yl]-2-(1-methyl-1H-pyrazol-4-yl)-3-oxo-2,3-dihydropyridazine-4-carboxamide]	721 nM	> 20000 nM
Cn1cc(-n2nc(-c3ccc(Cl)cc3)cc(C(=O)N[C@@H]3CCC[C@]3(C)O)c2=O)cn1 (single isomer, unassigned) [Example 336, 6-(4-Chlorophenyl)-N-[(cis)-2-hydroxy-2-methylcyclopentyl]-2-(1-methyl-1H-pyrazol-4-yl)-3-oxo-2,3-dihydropyridazine-4-carboxamide]	42.9 nM	> 20000 nM
O=C(NC[C@H](O)C(F)(F)F)c1cc(-c2ccc(Cl)cc2)nn(-c2cnsc2)c1=O [Example 199, 6-(4-Chlorophenyl)-3-oxo-2-(1,2-thiazol-4-yl)-N-[(2S)-3,3,3-trifluoro-2-hydroxypropyl]-2,3-dihydropyridazine-4-carboxamide]	0.694 nM	> 20000 nM
O=C(NC[C@H](O)C(F)(F)F)c1cc(-c2ccc(Cl)cc2)nn(-c2cnn(C(F)F)c2)c1=O [Example 256, 6-(4-Chlorophenyl)-2-[1-(difluoromethyl)-1H-pyrazol-4-yl]-3-oxo-N-[(2S)-3,3,3-trifluoro-2-hydroxypropyl]-2,3-dihydropyridazine-4-carboxamide]	26 nM	> 20000 nM
Cn1cc(-n2nc(-c3ccc(C(F)F)cc3)cc(C(=O)N[C@H]3CCC[C@@H]3O)c2=O)cn1 (relative stereo) [Example 52, 6-[4-(Difluoromethyl)phenyl]-N-[(trans)-2-hydroxycyclopentyl]-2-(1-methyl-1H-pyrazol-4-yl)-3-oxo-2,3-dihydropyridazine-4-carboxamide]	11.5 nM	> 20000 nM
C[C@@H](NC(=O)c1cc(-c2ccc(OC(F)(F)F)cc2)nn(-c2cccnc2)c1=O)C(C)(C)O [Example 294, N-[(2R)-3-Hydroxy-3-methylbutan-2-yl]-3-oxo-2-(pyridin-3-yl)-6-[4-(trifluoromethoxy)phenyl]-2,3-dihydropyridazine-4-carboxamide]	49.8 nM	> 20000 nM
O=C(NC[C@@H](O)C(F)(F)F)c1cc(-c2ccc(OC(F)(F)F)cc2)nn(-c2cccnc2)c1=O [Example 293, 3-Oxo-2-(pyridin-3-yl)-N-[(2R)-3,3,3-trifluoro-2-hydroxypropyl]-6-[4-(trifluoromethoxy)phenyl]-2,3-dihydropyridazine-4-carboxamide]	82.2 nM	> 20000 nM
Cn1cc(-n2nc(-c3ccc(C(F)(F)F)cc3)cc(C(=O)N[C@@H]3COC[C@@H]3O)c2=O)cn1 (relative stereo) [Example 215, N-cis-4- Hydroxytetrahyd rofuran-3-yl-2-(1-methyl-1H-pyrazol-4-yl)-3-oxo-6-[4-(trifluoromethyl)phenyl]-2,3-dihydropyridazine-4-carboxamide]	2.21 nM	> 20000 nM
Cn1cc(-n2nc(-c3ccc(CF)cc3)cc(C(=O)N[C@H](CO)C(F)(F)F)c2=O)cn1 [Example 275, 6-[4-(Fluoromethyl)phenyl]-2-(1-methyl-1H-pyrazol-4-yl)-3-oxo-N-[(2R)-1,1,1-trifluoro-3-hydroxypropan-2-yl]-2,3-dihydropyridazine-4-carboxamide]	130 nM	> 20000 nM
COC(=O)[C@@H](CO)NC(=O)c1cc(-c2ccc(Cl)cc2)nn(-c2cnn(C)c2)c1=O [Example 267, Methyl N-{[6-(4-chlorophenyl)-2-(1-methyl-1H-pyrazol-4-yl)-3-oxo-2,3-dihydropyridazine-4-yl]carbonyl}-D-serinate]	56.9 nM	> 20000 nM
